Laboratory results published in US10316017B2, “COT modulators and methods of use thereof” (Gilead Sciences, Inc., priority 2015, dated 2019).
Like-named read-outs stand apart in the source and are kept apart here.

What was measured:
[1] = test system: TNFα production in LPS-stimulated human monocytes; assay: Cot Monocyte TNFα Cell Based Assay; conditions: read-out: EC50 TNF
Outline: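 TNFα release quantified by two-antibody TR-FRET, normalised to unstimulated (0%) and LPS-stimulated (100%) wells. Cells got a 1 h compound exposure at 37° C in 0.5% DMSO before 4 h challenge with 50 pg/ml LPS, at 5,000 cells/well.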

[2] = molecular target: T1, human Cot catalytic domain (30-397 amino acids) (Homo sapiens, UniProt P41279); assay: High Throughput Cot Biochemical Assay (KinEASE TR-FRET); conditions: read-out: IC50 HTRF
T1 construct: Purified recombinant human Cot catalytic domain (30-397 amino acids) was purchased from Cama Biosciences; purchased Cama Biosciences (so in the source)
T1 sequence (P41279 30-397): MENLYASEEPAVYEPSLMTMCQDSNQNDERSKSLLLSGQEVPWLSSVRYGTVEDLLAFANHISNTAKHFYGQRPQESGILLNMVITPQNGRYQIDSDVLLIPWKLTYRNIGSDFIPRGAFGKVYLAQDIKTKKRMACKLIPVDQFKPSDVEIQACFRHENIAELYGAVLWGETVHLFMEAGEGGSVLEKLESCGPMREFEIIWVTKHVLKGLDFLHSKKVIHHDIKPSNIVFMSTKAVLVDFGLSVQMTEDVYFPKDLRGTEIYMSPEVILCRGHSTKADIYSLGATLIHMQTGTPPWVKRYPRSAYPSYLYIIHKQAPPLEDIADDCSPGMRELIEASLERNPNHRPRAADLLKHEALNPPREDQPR
Outline: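 TR-FRET (KinEASE) read-out: Eu-labelled phospho-specific antibody binds XL665-tagged STK3 peptide (1 μM) phosphorylated by 5 nM human Cot kinase domain (residues 30-397). Reaction at 400 μM ATP, pH 7.0 MOPS buffer with 10 mM MgOAc, 1 mM DTT and 0.1% DMSO.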

[3] = Homo sapiens, Monocyte, TNFα in LPS-stimulated human monocytes
[4] = Cot biochemical HTRF (KinEASE TR-FRET) assay
[5] = Cot KinEASE TR-FRET (HTRF) biochemical assay, 400 μM ATP
[6] = Homo sapiens, Monocyte, LPS-stimulated human monocytes, TNFα TR-FRET
[7] = Cot KinEASE TR-FRET, 400 μM ATP

EC50 [1, 3] [nM]	IC50 [2, 4] [nM]	IC50 [2, 5] [nM]	SMILES	further results
847	60	–	CC(C)(C)N1CCC(n2cc([C@@H](Nc3cc(Cl)c4ncc(C#N)c(NC5CCCCCC5)c4c3)c3ccc(Cl)cc3)nn2)CC1 [Example 716, (S)-6-(((1-(1-(tert-butyl)piperidin-4-yl)-1H-1,2,3-triazol-4-yl)(4-chlorophenyl)methyl)amino)-8-chloro-4-(cycloheptylamino)quinoline-3-carbonitrile]	–
50	3	–	CCN1CCC(n2cc([C@@H](Nc3cc(F)c4ncc(C#N)c(Nc5ccc(F)c(Cl)c5)c4c3)c3ccccc3)nn2)CC1 [Example 791, (S)-4-((3-chloro-4-fluorophenyl)amino)-6-(((1-(1-ethylpiperidin-4-yl)-1H-1,2,3-triazol-4-yl)(phenyl)methyl)amino)-8-fluoroquinoline-3-carbonitrile]	–
215	–	12	CC[C@@H](Nc1c(C#N)cnc2c(Cl)cc(N[C@@H](c3cccc(F)c3)c3cn(C4CC4)nn3)cc12)c1ccccc1 [Example 272, 8-chloro-6-(((S)-(1-cyclopropyl-1H-1,2,3-triazol-4-yl)(3-fluorophenyl)methyl)amino)-4-(((R)-1-phenylpropyl)amino)quinoline-3-carbonitrile]	–
985	6	–	N#Cc1cnc2c(Cl)cc(N[C@@H](c3cccc(-c4ncco4)c3)c3cn(C4COC4)nn3)cc2c1Nc1cnc(F)c(F)c1 [Example 499, (S)-8-chloro-4-((5,6-difluoropyridin-3-yl)amino)-6-(((3-(oxazol-2-yl)phenyl) (1-(oxetan-3-yl)-1H-1,2,3-triazol-4-yl)methyl)amino)quinoline-3-carbonitrile]	–
15700	599	–	CC(C)Nc1c(C#N)cnc2c(Cl)cc(N[C@@H](c3ccc(Cl)cc3)c3cn(C4CCN(C(C)(C)C)CC4)nn3)cc12 [Example 682, (S)-6-(((1-(1-(tert-butyl)piperidin-4-yl)-1H-1,2,3-triazol-4-yl)(4-chlorophenyl)methyl)amino)-8-chloro-4-(isopropylamino)quinoline-3-carbonitrile]	–
1280	36	–	CC(C)(C)N1CCC(n2cc([C@@H](Nc3cc(Cl)c4ncc(C#N)c(NC56CC7CC(CC(C7)C5)C6)c4c3)c3ccccc3)nn2)CC1 [Example 637, 4-(((3R,5R,7R)-adamantan-1-yl)amino)-6-(((S)-(1-(1-(tert-butyl)piperidin-4-yl)-1H-1,2,3-triazol-4-yl)(phenyl)methyl)amino)-8-chloroquinoline-3-carbonitrile]	–
5720	–	492	[2H][C@](Nc1cc(Cl)c2ncc(C#N)c(NC3(CC)CC3)c2c1)(c1ccc(F)cc1)c1cn(C2CC2)nn1 [Example 216, (S)-8-chloro-6-(((1-cyclopropyl-1H-1,2,3-triazol-4-yl)(4-fluorophenyl)methyl-d)amino)-4-((1-ethylcyclopropyl)amino)quinoline-3-carbonitrile]	–
–	–	–	Cc1c(C#N)cccc1[C@H](Nc1cc(Cl)c2ncc(C#N)c(NCC(C)(C)C(F)(F)F)c2c1)c1cn(C2(C3CC3)CC2)nn1 [Example 1105, (S)-6-(((1-([1,1'-bi(cyclopropan)]-1-yl)-1H-1,2,3-triazol-4-yl)(3-cyano-2-methylphenyl)methyl)amino)-8-chloro-4-((3,3,3-trifluoro-2,2-dimethylpropyl)amino)quinoline-3-carbonitrile]	EC50 [1, 6]: 90 nM; IC50 [2, 7]: 5 nM
34	–	2	N#CCC[C@@H](Nc1c(C#N)cnc2c(Cl)cc(N[C@H](c3cn(C4(C#N)CC4)nn3)c3ccccc3Cl)cc12)c1ccccc1 [Example 73, 8-chloro-6-(((S)-(2-chlorophenyl)(1-(1-cyanocyclopropyl)-1H-1,2,3-triazol-4-yl)methyl)amino)-4-(((R)-3-cyano-1-phenylpropyl)amino) quinoline-3-carbonitrile]	–
661	32	–	CC(C)(C)N1CCC(n2cc([C@@H](Nc3cc(Cl)c4ncc(C#N)c(Nc5ccc(F)c(F)c5F)c4c3)c3ccc(Cl)cc3)nn2)CC1 [Example 650, (S)-6-(((1-(1-(tert-butyl)piperidin-4-yl)-1H-1,2,3-triazol-4-yl)(4-chlorophenyl)methyl)amino)-8-chloro-4-((2,3,4-trifluorophenyl)amino)quinoline-3-carbonitrile]	–
3240	377	–	N#Cc1cnc2c(Cl)cc(N[C@@H](c3ccc(Cl)cc3)c3c[nH]nn3)cc2c1Nc1cc(F)c(F)cc1F [Example 647, (S)-8-chloro-6-(((4-chlorophenyl)(1H-1,2,3-triazol-4-yl)methyl)amino)-4-((2,4,5-trifluorophenyl)amino)quinoline-3-carbonitrile]	–
773	–	24	N#Cc1cnc2c(Cl)cc(N[C@@H](c3ccc(F)cc3)c3cn(C4CC4)nn3)cc2c1NC(CC(F)(F)F)c1ccccc1 (stereo partly drawn) [Example 347, 8-chloro-6-(((S)-(1-cyclopropyl-1H-1,2,3-triazol-4-yl)(4-fluorophenyl)methyl)amino)-4-((3,3,3-trifluoro-1-phenylpropyl)amino)quinoline-3-carbonitrile]	–
–	–	–	CC[C@@H](Nc1c(C#N)cnc2c(C#N)cc(N[C@@H](c3cccc(-c4ncco4)c3)c3cn(C4CC4)nn3)cc12)c1ccccc1 [Example 941, 6-(((S)-(1-cyclopropyl-1H-1,2,3-triazol-4-yl) (3-(oxazol-2-yl)phenyl)methyl)amino)-4-(((R)-1-phenylpropyl)amino) quinoline-3,8-dicarbonitrile]	EC50 [1, 6]: 52 nM; IC50 [2, 7]: 1 nM
> 10000	–	397	[2H][C@](Nc1cc(Cl)c2ncc(C#N)c(Nc3ccccc3OC(F)(F)F)c2c1)(c1ccc(F)cc1)c1cn(C2CC2)nn1 [Example 126, (S)-8-chloro-6-(((1-cyclopropyl-1H-1,2,3-triazol-4-yl)(4-fluorophenyl)methyl-d)amino)-4-((2-(trifluoromethoxy)phenyl)amino)quinoline-3-carbonitrile]	–
–	–	–	CC(C)(C)CNc1c(C#N)cnc2c(Cl)cc(N[C@@H](c3ccc(F)cc3)c3cn(C4(C)CC4)nn3)cc12 [Example 990, (S)-8-chloro-6-(((4-fluorophenyl)(1-(1-methylcyclopropyl)-1H-1,2,3-triazol-4-yl)methyl)amino)-4-(neopentylamino)quinoline-3-carbonitrile]	EC50 [1, 6]: 76 nM; IC50 [2, 7]: 12 nM
> 1000	–	58	[2H][C@](Nc1cc(I)c2ncc(C#N)c(NCC(C)(C)C)c2c1)(c1ccc(F)cc1)c1cn(C2CC2)nn1 [Example 102, (S)-6-(((1-cyclopropyl-1H-1,2,3-triazol-4-yl)(4-fluorophenyl)methyl-d)amino)-8-iodo-4-(neopentylamino) quinoline-3-carbonitrile]	–
199	–	11	[2H][C@](Nc1cc(Cl)c2ncc(C#N)c(N[C@@H](c3ccccc3)C3CC3)c2c1)(c1ccc(F)cc1)c1cn(C2CC2)nn1 [Example 185, 8-chloro-4-(((R)-cyclopropyl (phenyl)methyl)amino)-6-(((S)-(1-cyclopropyl-1H-1,2,3-triazol-4-yl)(4-fluorophenyl)methyl-d)amino)quinoline-3-carbonitrile]	–
–	46	–	CC(C)(C)N1CCC(n2cc([C@@H](Nc3cc(Cl)c4ncc(C#N)c(NC5CCCC(O)C5)c4c3)c3ccc(F)cc3)nn2)CC1 (stereo partly drawn) [Example 440, 6-(((S)-(1-(1-(tert-butyl)piperidin-4-yl)-1H-1,2,3-triazol-4-yl)(4-fluorophenyl)methyl)amino)-8-chloro-4-((3-hydroxycyclohexyl)amino) quinoline-3-carbonitrile]	EC50 ([1]; TNFα in LPS-stimulated human monocytes): 371 nM
–	–	–	[2H][C@](Nc1cc(Cl)c2ncc(C#N)c(NCC(C)(C)C)c2c1)(c1cccc(C#N)c1)c1cn(C(F)(F)C(N)=O)nn1 [Example 971, (S)-2-(4-(((8-chloro-3-cyano-4-(neopentylamino)quinolin-6-yl)amino)(3-cyanophenyl)methyl-d)-1H-1,2,3-triazol-1-yl)-2,2-difluoroacetamide]	EC50 [1, 6]: 270 nM; IC50 [2, 7]: 4 nM
395	–	31	[2H][C@](Nc1cc(Br)c2ncc(C#N)c(NCC(C)(C)C)c2c1)(c1ccc(Cl)cc1)c1cn(C2CC2)nn1 [Example 80, (S)-8-bromo-6-(((4-chlorophenyl)(1-cyclopropyl-1H-1,2,3-triazol-4-yl)methyl-d)amino)-4-(neopentylamino) quinoline-3-carbonitrile]	–
–	–	–	Cc1c(-c2cn[nH]c2)cccc1[C@H](Nc1cc(Cl)c2ncc(C#N)c(NCC(C)(C)C)c2c1)c1cn(C2(C(F)F)CC2)nn1 [Example 1166, (S)-8-chloro-6-(((1-(1-(difluoromethyl)cyclopropyl)-1H-1,2,3-triazol-4-yl) (2-methyl-3-(1H-pyrazol-4-yl)phenyl)methyl)amino)-4-(neopentylamino)quinoline-3-carbonitrile]	EC50 [1, 6]: 47 nM; IC50 [2, 7]: 5 nM
358	17	–	CC(C)n1cc([C@@H](Nc2cc(Cl)c3ncc(C#N)c(Nc4ccc(F)c(Cl)c4)c3c2)c2cccc(CO)c2)nn1 [Example 713, (S)-8-chloro-4-((3-chloro-4-fluorophenyl)amino)-6-(((3-(hydroxymethyl)phenyl)(1-isopropyl-1H-1,2,3-triazol-4-yl)methyl)amino)quinoline-3-carbonitrile]	–
